According to patent US7824872B2, “Pharmaceutical agents” (Theravalues Corporation, priority 2003, dated 2010):
Where two headings read alike, the source gives them in different places. Where a SMILES comes first, the peptide text is derived from it. [ ]: non-standard residue; d: D form. Nle = CCCC[C@H](N)C(=O)O

Tests used:
Format in all cases: cell-based
[1] = tested on: Pim-1; assay: Western blotting of Pim-1 in cells cultured with a proteasome inhibitor; details: PCI-43 cells, normoxia, 50 μM ALLN, 6 and 12 hours
Experimental: The cells used were HCT116 (colon cancer cell line), HePG2 (liver cancer cell line), KMP-4 (pancreatic cancer cell line), PCI-10 (pancreatic cancer cell line), PCI-35 (pancreatic cancer cell line), and PCI-43 (pancreatic cancer cell line). Each type of cell was cultured for 16 hours under hypoxia (1% oxygen, 5% carbondioxide), or normoxia (20% oxygen, 5% carbondioxide). RNA was extracted from the cultured cells using Trizol reagent, and proteins were extracted from the cultured cells using 1% NP-40 lysis buffer ([…] pH7.5, […], 2 μM EDTA, 1 μM EGTA, 50 μM NaF, 1 μM Na3VO4, 1 mM PMSF).
Proteins were detected by Western blotting. More specifically, the above-mentioned samples were electrophoresed through 12% polyacrylamide gels, and then blotted onto nitrocellulose membranes. The membranes were blocked with blocking buffer (5% skim milk, in physiological Tween-phosphate buffer), reacted with anti-Pim-1 antibody for one hour, then incubated with peroxidase-conjugated goat anti-mouse IgG secondary antibody, and detected using an ECL detection kit (Amersham).
Whether or not Pim-1 is degraded by proteases under normoxia was investigated. PCI-43 cells were cultured under hypoxia and normoxia. Cells cultured under hypoxia were sampled before culturing, and after culturing for 4, 12, and 24 hours. […]

[2] = tested on: PCI-43 cells; assay: Number of live cells after 48 hours of treatment with anticancer agents (IC50); details: concentration halving the number of live cells
Experimental: (§1) The sensitivity of solid cancer cells to anticancer agents under low and normal oxygen partial pressures was investigated. Three types of solid pancreatic cancer cell lines (PCI-35 cells, KMP-4 cells, and PCI-43 cells) were used as the cells. For each type of cell, 2×10^3 cells were cultured for six hours in the presence of 50 μg/mL of cisplatin under low oxygen partial pressure (1% oxygen, 5% carbondioxide; hereinafter, the same values in the Examples) or normal oxygen partial pressure (20% oxygen, 5% carbondioxide; hereinafter, the same values in the Examples). After culturing, the cells were washed twice with physiological phosphate buffer (pH7.4) to prepare samples. Dulbecco's Modified Eagle's Medium/F12 was used as the medium for culturing (hereinafter, unless particularly specified, use of the same medium is assumed).
Using gemcitabine, adriamycin, and cisplatin, and using PCI-43 cells, measurements were made as in Example 1. The concentrations of gemcitabine and adriamycin were 0.1 to 1 μmol and 0.1 to 5 μmol, respectively. IC50 values were calculated from the measured results, as shown below.
The number of live cells was determined after 48 hours of treatment with various concentrations of anticancer agents, and the concentrations of anticancer agents needed to half the number of live cells present when the various anticancer agents were not added were defined as IC50 values.

[3] = tested on: PCI-35 cells, KMP-4 cells, and PCI-43 cells; assay: FACS analysis of apoptosis (PI / anti-anexin V staining) under hypoxia and normoxia, three pancreatic cancer cell lines; details: 50 μg/mL cisplatin, six hours, PCI-35, KMP-4 and PCI-43 cells
Experimental: as §1
(§2) The cells described above were stained with propidium iodide (PI) and FITC-conjugated anti-anexin V, and FACS analysis was performed using FACS calibur (Becton Dickinson).
In FIG. 1, “Normoxia” means under normal oxygen partial pressure, and “Hypoxia” means under low oxygen partial pressure (the same hereinafter). The FACS analyses in the Examples can be described as staining of cells with PI and anti-anexin V, and sorting of cells based on the intensity of staining to show distributions such as those in FIG. 1. […]

[4] = tested on: PCI-43 cells; assay: FACS analysis of apoptosis (PI / anti-anexin V staining) under hypoxia and normoxia; details: 50 μg/mL cisplatin, 12 and 24 hours
Experimental: as §1, §2
In FIG. 1, “Normoxia” means under normal oxygen partial pressure, and “Hypoxia” means under low oxygen partial pressure (the same hereinafter). […]
PCI-43 cells were cultured for up to 24 hours under the same conditions as in Example 1. Samples obtained before culturing, and after culturing for 12 hours and 24 hours were analyzed as in Example 1. […]

[5] = hypoxia (1% oxygen, 5% carbondioxide), read-out: IC50 (μM), Hypoxia
[6] = normoxia (20% oxygen, 5% carbondioxide), read-out: IC50 (μM), Normoxia

## CCCC[C@@H](C=O)NC(=O)[C@H](CC(C)C)NC(=O)[C@H](CC(C)C)NC(C)=O [ALLN, N-acetyl-L-leucinyl-L-leucinyl-L-norleucinal] (Ac-Leu-Leu-[Nle]-aldehyde)
[1]
  amount of Pim-1 (Western blotting): the amount of Pim-1 also increased with time under normoxia

## COc1cccc2c1C(=O)c1c(O)c3c(c(O)c1C2=O)C[C@@](O)(C(=O)CO)C[C@@H]3O[C@H]1C[C@H](N)[C@H](O)[C@H](C)O1 [Adriamycin, adriamycin]
[2]; [5]
  IC50: 1.9 µM
[2]; [6]
  IC50: 0.3 µM

## N.N.[Cl][Pt][Cl] [Cisplatin, cisplatin]
[2]; [5]
  IC50: 27.7 µM
[2]; [6]
  IC50: 18.6 µM
[3]
  induction of apoptosis under normoxia compared with hypoxia: approximately twice that under hypoxia
[4]
  proportion of apoptotic cells under hypoxia compared with normoxia: approximately half that under normoxia

## Nc1ccn([C@@H]2O[C@H](CO)[C@@H](O)C2(F)F)c(=O)n1 [Gemcitabine, gemcitabine]
[2]; [5]
  IC50: 1.56 µM
[2]; [6]
  IC50: 0.272 µM
